Data as given in patent publication US4271193A, “N1-Benzoyl-N2-phenyldiaminopropanols and pharmaceutical compositions thereof, and processes for their preparation” (Kali-Chemie Pharma GmbH, priority 1978, dated 1981).

Legend:
[1] = Acute 7-day toxicity after single application per os; details: mouse, in vivo, po, white NMRI-mice, not fed
Procedure: The acute 7-day toxicity is determined after a single application per os in white NMRI-mice which had not been fed. The calculation of the LD50 is carried out by probitananalysis by means of electronic data processing (see L. Cavalli-Sforza, Gustav Fischer-Verlag, Stuttgart (1964), Grundbegriffe der Biometrie, p. 153).

stomach epithelium cells = test: Inhibition of acetylsalicylic acid-induced loss of stomach epithelium cells; assay type: in vivo; details: Rattus norvegicus; narcotized male SIV50 rats; acetylsalicylic acid as irritant; 3 times 300 mg/kg test compound orally beforehand; read-out: % reduction of loss of epithelium cells in the stomach
Procedure: 2. Inhibition of loss of stomach epithelium cells
The test compound is orally administered to narcotized male rats of the breed SIV50 prior to the beginning of the test. […] In order to determine the induced total loss of cells in the rats stomach, acetylsalicylic acid is administered to animals without prior administration of a protective compound.
In order to prepare the animals for the determination, the trachea is laid free and a tube introduced therein. Subsequently, a laparotomy in the medial part, displacement of the stomach and introducing and fixing of a vein-catheter for recovering stomach juices are effected. By means of the introduced vein-catheter, stomach juice is recovered and then is centrifuged and microscopically analyzed.
The percent reduction of loss of cells induced by the acetylsalicylic acid after previous administration of 3 times 300 mg/kg of the test compound is determined.

Compound	LD50 at 168 h [1] [mg/kg]	inhibition in vivo at 300 mg/kg (stomach epithelium cells) [%]
COc1cc(C(=O)NCC(O)CN(C)c2ccc(F)cc2)cc(OC)c1OC (stereo not drawn) [A]	5010	53
COc1cc(C(=O)NCC(O)CN(C)c2ccc(Cl)cc2)cc(OC)c1OC (stereo not drawn) [B]	> 5000	77
COc1cc(C(=O)NCC(O)CN(C)c2ccc(C(F)(F)F)cc2)cc(OC)c1OC (stereo not drawn) [C]	> 1390	47.8
COc1cc(C(=O)NCC(O)CN(C)c2ccc(C)cc2)cc(OC)c1OC (stereo not drawn) [D]	> 3160	47.8
CCN(CC(O)CNC(=O)c1cc(OC)c(OC)c(OC)c1)c1ccc(F)cc1 (stereo not drawn) [E]	> 1280	43
COc1cc(C(=O)NCC(O)CNc2c(C)cc(C)cc2C)cc(OC)c1OC (stereo not drawn) [F]	> 1270	28.4
CCOc1cc(C(=O)NCC(O)CN(C)c2ccc(F)cc2)cc(OCC)c1OCC (stereo not drawn) [G]	> 1370	63
COc1ccc(C(=O)NCC(O)CN(C)c2ccc(F)cc2)c2c1OCCO2 (stereo not drawn) [H]	> 1230	48.6
CCCCOc1c(OC)cc(C(=O)NCC(O)CN(C)c2ccc(F)cc2)cc1OC (stereo not drawn) [I]	> 1370	27.2
